Read-outs that look alike come from different tables or passages of the source.
How the values were obtained:
Ceriodaphnia dubia = conditions: in vivo
[1] = Solubility of ILs in base oils, by centrifuging the oil-additive blends; conditions: centrifuged 13,000 rpm 5 min

Compound	Survival rate of Daphnia (Ceriodaphnia dubia)	Total reproductive output (number of neonates) in surviving Daphnia (Ceriodaphnia dubia)	other results
CCCCCCN(CCCCCC)CCCCCC.CCCCOP(=O)(O)OCCCC [[N666H][DBP]]	10%	–	–
CCCCCCCCN(CCCCCCCC)CCCCCCCC.CCCCOP(=O)(O)OCCCC [[N888H][DBP]]	0%	0	–
CCCCOP(=O)([O-])OCCCC.CCCC[N+](C)(CCCC)CCCC [[N4441] [DBP]]	> 70%	–	–
CCCCOP(=O)(O)OCCCC.CN1CCOCC1 [[NMM] [DBP]]	70-90%	–	–
CCCCOP(=O)(O)OCCCC.CN1CCOCC1 [[NMM][DBP]]	> 70%	–	–
CCCCOP(=O)(O)OCCCC.CN1CCCCC1 [[NMPPR] [DBP]]	70-90%	–	–
CCCCOP(=O)(O)OCCCC.CN1CCCCC1 [[NMPPR][DBP]]	> 70%	–	–
CCCC[P+](CC)(CCCC)CCCC [[P4442][DEP], Tributyl(ethyl)phosphonium diethyl phosphate]	–	–	IL's solubility in base oil ([1]; OSP-32): >5% wt. %; IL's solubility in base oil ([1]; PAG (50-HB-170)): >5% wt. %; Number of surviving Daphnia (Ceriodaphnia dubia; Ceriodaphnia dubia): 10; Survival rate of Daphnia (Ceriodaphnia dubia; Ceriodaphnia dubia): > 70%; Mortality / survival of Daphnia, in words (Ceriodaphnia dubia): did not cause any mortality
Tetraoctylammonium octadecanoate [[N8888][C17H35COO]]	–	0	Mortality / survival of Daphnia, in words (Ceriodaphnia dubia): No Daphnia survived for three days
Tetraoctylphosphonium bis(2-ethylhexyl) phosphate [[P8888][DEHP], reference compound]	–	0	Time of exposure after which all Daphnia were killed (Ceriodaphnia dubia): one
Trioctylammonium di(2-ethylhexyl)phosphate [[N888H][DEHP], reference compound]	–	0	–
tributyl(methyl)ammonium dibutyl phosphate [[N4441][DBP]]	–	–	Mortality / survival of Daphnia, in words (Ceriodaphnia dubia): did not cause any mortality

Reference: patent US11760766B2, “Ionic liquids containing quaternary ammonium and phosphonium cations, and their use as environmentally friendly lubricant additives” (UT-Battelle, LLC, priority 2020, dated 2023)
